Test results published in patent US6096725A, “Methods of using αGal oligosaccharides as immune system targeting agents” (Neose Technologies, Inc., priority 1997, dated 2000).
“Also recorded” adds a separate entry of the source. Read-outs that look alike come from different tables or passages of the source.

Legend:
[1] = test system: anti-αGal antibodies (serum IgG and IgM); assay: In vitro immobilized αGal pentasaccharide glycinamide ELISA; assay type: binding; details: baboon serum pre-incubated with oligosaccharide 1 hour 37° C.; result in words
Excerpt: In vitro immobilized αGal oligosaccharide ELISA analysis evaluation of anti-αGal antibody titer and of αGal oligosaccharides as neutralizers of anti-αGal antibodies. This example provides an assay that may be applied to determine the ability of αGal oligosaccharides and pharmaceutically acceptable derivative of the invention to bind to anti-αGal antibodies and to thereby remove these antibodies from the serum or plasma, neutralize anti-αGal antibodies, and/or target complement-mediated lytic attack to specific tissue or cell types. Such an ELISA is additionally useful in clinical monitoring of anti-αGal antibodies in blood of patients in advance of, and following xenotransplantation of organs from animals that express the αGal epitope.
The derivative of the αGal pentasaccharide (αGal pentasaccharide glycinamide) was synthesized and immobilized on N-oxysuccinimide microtiter plates (Costar) (0.5 mg/ml αGal pentasaccharide glycinamide) in bicarbonate buffer, pH 9.0, overnight at 4° C.; the plate was blocked first for 1 hour with 1M ethanolamine in the same buffer and secondly with phosphate buffered saline, pH 7.4, containing 1% bovine serum albumin and 0.05% Tween 20 and 0.02% NaN3 or PBNT. PBNT was used for all three subsequent plate washes and as a diluent for the antibodies. […] The optical density at 405 nm was recorded.

[2] = test system: anti-αGal IgG and IgM antibodies; assay: In vitro mouse laminin ELISA: soluble oligosaccharides as neutralizers of anti-αGal antibodies; assay type: binding; details: serum pre-incubated with oligosaccharide 1 hour 37° C.; result in words
Excerpt: In vitro laminin ELISA evaluation of αGal oligosaccharides as neutralizers of anti-αGal antibodies. Mouse laminin is a basement membrane glycoprotein that expresses 50-70 oligosaccharides terminating in Galα1-3Gal, i.e., the αGal motif (Arumugham et al., 1986, Biochem. Biophys. Aeta 883:112). In this assay, immobilization of mouse laminin on microtiter plates serves as a capture ligand for anti-αGal antibodies. […] The example provides a method by which to determine the ability of αGal oligosaccharides and pharmaceutically acceptable derivative of the invention to bind to anti-αGal antibodies and to thereby remove these antibodies from the serum, neutralize anti-αGal antibodies, and/or target anti-αGal directed complement-mediated lytic attack to specific tissue or cell types. The example also provides a method by which the effectiveness of the methods of the invention can be evaluated and dosages determined.
Sera were mixed with serial dilutions of αGal oligosaccharides (αGal-CHO) at 37° C. for 1 hour, then added to mouse laminin-coated microtiter plates and incubated for 1 hour to allow binding. The microtiter plates were coated with 20 μg/mL mouse laminin in 50 mM NaHCO3 buffer, pH 9.5 at 4° C. overnight, blocked with SuperBlock solution (Pierce) for 2 hours, and then washed 3 times with SuperBlock solution. After washing excess serum away, bound IgG and IgM was measured by adding goat anti-human IgG (or IgM) conjugated to alkaline phosphatase and incubating for 1 hour, washing, and adding substrate (pNPP).

[3] = test system: hyperacute rejection; details: cited from earlier work
[4] = test system: anti-αGal antibody; details: Neethling et al., 1996; cited from earlier work
[5] = Pharmacokinetics after 15 minute intravenous bolus in baboons; assay type: in vivo, baboon; details: for clearance / half-life / Vd: baboon, plasma, iv, 500 umol/kg, 0.5 mMol/Kg 15 minute i.v. bolus; for Vd: read-out: Volume of Distribution
Method: The pharmacokinetics of the αGal trisaccharide compositions and the αGal pentasaccharide compositions were determined by delivering to one baboon by 15 minute intravenous bolus, 0.5 mMol/Kg of one oligosaccharide and 48 hours later, delivering 0.5 mmol/Kg of the second oligosaccharide, and for a second baboon, delivering the oligosaccharides according to the same procedure, but in the reverse order.
(§1) Three Baboons were outfitted with indwelling venous and arterial catheters to the femoral vessels, and held in place with the aid of a jacket. Oligosaccharides were administered through the catheter in a 15 minute continuous infusion.
The clearance is used to calculate the infusion rate needed to maintain a desired drug concentration. The half-life describes how quickly concentrations diminish with time. Mathematical formulations known in the art were applied to estimate the pharmacokinetic parameters of the αGal trisaccharide and αGal pentasaccharide. […] Compared to other drugs, the volumes of distribution of these oligosaccharides are low, less than the extravascular water volume (<400 mL/kg). The clearance is typical of compounds eliminated by GFR (glomerular filtration rate).

[6] = test system: anti-αGal antibody; assay: In vivo blood serum analysis: serum anti-αGal antibody neutralizing capacity in baboons; set-up: species or system baboon; details: monovalent oligosaccharide
Excerpt: Pharmokinetics of αGal trisaccharides and αGal pentasaccharides in baboons. This example presents a study of the pharmokinetic profile and serum anti-αGal antibody neutralizing capacity in baboons of αGal trisaccharides and αGal pentasaccharides and previews the compounds' suitability for use in the prevention of hyperacute rejection of porcine organs xenotransplanted into baboons.
as §1

[7] = test system: pig kidney cells, PK-15; assay: In vitro cytotoxicity of human sera on PK-15 monolayers; assay type: cell-based; details: sera of individual humans; result in words
Method: Sera were incubated with serial dilutions of αGal oligosaccharides at 37° C. for 1 hour, then added to αGal-expressing monolayers (pig kidney cells, PK-15) in Terasaki plates for 1 hour at 37° C. Cytotoxicity was mediated by either endogenous complement, or the sera were de-complemented (heat inactivated for 30 minutes at 56° C.) and exogenous (rabbit) complement was added. After washing away excess serum, the viable dye mix "live-dead" (calcein AM/ethidium homodimer (Molecular Probes Inc., Eugene Oreg.)) was added and monolayers were scored for viability by fluorescence microscopy.

[8] = to attain 0.5 mM steady state serum concentration
[9] = to attain 1.0 mM steady state serum concentration
[10] = to attain 2.0 mM steady state serum concentration

Structure (SMILES): OC[C@H]1O[C@@H](O[C@@H]2[C@H](O)[C@@H](O)C(O)O[C@@H]2CO)[C@H](O)[C@@H](O)[C@H]1O (some centres unmarked) [Galβ1-4Gal]
- Inhibition of serum IgG and IgM binding to immobilized αGal pentasaccharide glycinamide [1]: minimally
- Inhibition of anti-αGal IgG and IgM antibody binding to immobilized mouse laminin [2]: do not inhibit antibody binding

Structure (SMILES): CC(=O)N[C@H]1[C@H](O[C@H]2[C@@H](O)[C@@H](CO)O[C@@H](O[C@H]3[C@H](O)[C@@H](O)C(O)O[C@@H]3CO)[C@@H]2O)O[C@H](CO)[C@@H](O[C@@H]2O[C@H](CO)[C@H](O)[C@H](O)[C@H]2O)[C@@H]1O (some centres unmarked) [Galβ1-4GlcNAcβ1-3 Galβ1-4Glc]
- Inhibition of anti-αGal IgG and IgM antibody binding to immobilized mouse laminin [2]: do not inhibit antibody binding

Structure (SMILES): OC[C@H]1O[C@H](OC[C@H]2OC(O)[C@H](O)[C@@H](O)[C@@H]2O)[C@H](O)[C@@H](O)[C@H]1O (some centres unmarked) [melibiose, Galα1-6Glu]
- Prevention of hyperacute rejection on in vivo administration ([3]; Ye et al., 1994): failed to prevent hyperacute rejection
- Toxicity on in vivo administration ([3]; necessary concentrations in pig/primate xenotransplantation): cytotoxic to other tissue; also recorded: proved highly toxic

Structure (SMILES): OC[C@H]1O[C@@H](O[C@H]2[C@H](O)[C@@H](O)C(O)O[C@@H]2CO)[C@H](O)[C@@H](O)[C@H]1O (some centres unmarked) [lactose, galactoseβ1-4glucose]
- Inhibition of anti-αGal IgG and IgM antibody binding to immobilized mouse laminin [2]: do not inhibit antibody binding

Structure (SMILES): OC[C@H]1O[C@H](O[C@H]2[C@@H](O)[C@@H](CO)OC(O)[C@@H]2O)[C@H](O)[C@@H](O)[C@H]1O (some centres unmarked) [αGal disaccharide, Galα1-3Gal]
- Neutralization of anti-αGal antibody in vitro, in words [4]: effective in neutralizing the anti-αGal antibody in vitro

Structure (SMILES): CC(=O)N[C@H]1C(O)O[C@H](CO)[C@@H](O[C@@H]2O[C@H](CO)[C@H](O)[C@H](O[C@H]3O[C@H](CO)[C@H](O)[C@H](O)[C@H]3O)[C@H]2O)[C@@H]1O (some centres unmarked) [αGal trisaccharide, Galα1-3Galβ1-4GlcNAc]
- Neutralization of anti-αGal antibody in vitro, in words [4]: effective in neutralizing the anti-αGal antibody in vitro
- Relative effectiveness in neutralizing anti-αGal antibody in vitro [4]: ten times more effective than the αGal disaccharide
- clearance ([5]; baboon 1003): 4.18 mL/min/kg
- half-life ([5]; baboon 1003): 46.8 min
- Vd ([5]; baboon 1003): 0.288 L/kg
- clearance ([5]; baboon 1015): 4.88 mL/min/kg
- half-life ([5]; baboon 1015): 51.5 min
- Vd ([5]; baboon 1015): 0.362 L/kg
- Calculated continuous infusion, total amount [5, 8]: 1.04 Kg/14 days
- Calculated loading dose [5, 8]: 3.82 g/20 Kg baboon
- Calculated loading dose (bolus or 15 min infusion) [5, 8]: 191 mg/kg
- Calculated continuous infusion, total amount [5, 9]: 2.08 Kg/14 days
- Calculated loading dose [5, 9]: 7.64 g/20 Kg baboon
- Calculated loading dose (bolus or 15 min infusion) [5, 9]: 382 mg/kg
- Calculated continuous infusion, total amount [5, 10]: 4.15 Kg/14 days
- Calculated loading dose [5, 10]: 15.28 g/20 Kg baboon
- Calculated loading dose (bolus or 15 min infusion) [5, 10]: 764 mg/kg
- Inhibition of anti-αGal IgG and IgM antibody binding to immobilized mouse laminin [2]: slightly better inhibitor of IgG (FIG. 1A) and IgM (FIG. 1B) binding to laminin than αGal pentasaccharide
- Minimal serum (circulating) concentration required to inhibit hyperacute rejection / be efficacious in vivo [6]: ≥ 1 mM
- Inhibition of serum cytotoxicity toward PK-15 cells [7]: slightly better inhibitor of cytotoxicity than αGal pentasaccharide; also recorded: inhibited slightly better by the αGal trisaccharide than by the αGal pentasaccharide

Structure (SMILES): OC[C@H]1O[C@@](CO)(O[C@H]2O[C@H](CO)[C@@H](O)[C@H](O)[C@H]2O)[C@@H](O)[C@@H]1O [sucrose]
- Inhibition of serum IgG and IgM binding to immobilized αGal pentasaccharide glycinamide [1]: not inhibited
- Inhibition of anti-αGal IgG and IgM antibody binding to immobilized mouse laminin [2]: do not inhibit antibody binding
